# Like-named read-outs stand apart in the source and are kept apart here.
# Tests used:
# [1] = molecular target: human GLP1R (hGLP1R) (Homo sapiens, UniProt P43220); test: Human GLP1R cAMP agonist assay (GloSensor); type: cell-based; conditions: for Emax: read-out: Emax mean; for EC50: intracellular cAMP, mean n=3 where SEM is given
# Experimental: (§1) Compounds 1 to 31 were tested in the following cellular assays that measure the intracellular cAMP concentration, beta-arrestin recruitment and receptor internalization. The cAMP is generated by the activation of GLP1R. The cAMP data obtained is shown in Table 1 (where S.E.M. is included, mean n=3 independent experiments+/−S.E.M). Beta-arrestin is recruited upon activation of GLP1R and the data obtained are shown in Table 2 (mean n=2 independent experiments, +/−S.D). The extent to which the GLP1R is internalized into the cell and away from the plasma membrane following activation is also shown in Table 2 (mean n=2 independent experiments, +/−S.D). EC50 for each assay is defined as the concentration of the compound that leads to half of the maximum response (after baseline correction). Emax is defined as the maximum response observed for the test compound, normalized to the maximum response observed for the endogenous ligand (GLP1(7-36)) to GLP1R.
# Human GLP1R cAMP Agonist Assay
# The agonist activity of compounds was determined using the GloSensor™ cAMP Assay (Promega Corp.), which measures changes in the intracellular concentration of cAMP after ligand activation of GPCRs. The assay uses a biosensor encoded by pGloSensor™-22F cAMP plasmid (Promega, cat #E2301) with cAMP binding domains fused to a mutant form of Photinus pyralis luciferase. Binding to cAMP causes conformational changes that promote large increases in light output, which can be measured by a luminescence detector. HEK293-SNAP-hGLP1R-GloSensor cells stably overexpressing the human GLP1 receptor (hGLP1R) and pGloSensor™-22F were seeded in white 384-well poly-D-Lysine coated plates (Greiner Bio One, cat #781945) in CO2-independent media (Gibco cat #18045-088 with 1.0% FBS, 2 mM L-glutamine, penicillin and streptomycin) and incubated overnight at 37° C., 5% CO2 with humidity. The assay was started the following morning by adding an equal volume of CO2-independent media containing 4% v/v dilution of the GloSensor substrate (Promega, cat #E1291) to all wells. The cell plate was incubated at rt for 2 h in the dark. The Biomek 7 (Beckman Coulter) instrument was used for the liquid handling steps. To generate duplicate dose response curves, 3-fold serially diluted compounds were added in to the cell assay plate to a final volume of 60 μL with final concentrations ranging from 30 μM through 0.06 μM in CO2-independent media containing 0.1% BSA, 0.5 mM IBMX and 0.4% DMSO. In the same plate and assay buffer as the tested compounds, were EC100 control wells containing GLP1 (7-36) peptide (Bachem, cat #H-6795) at a final concentration of 2 nM and also EC0 control wells containing no peptide. This plate was incubated at rt in the dark for 12 min after adding the compounds to the cells. Luminescence was then measured with an Envision 2104 Multilabel reader with “TRF Light Unit, 337 nm” (PerkinElmer) using the Ultra-Sensitive protocol setting “384-well US luminescence detector” with the 384-well luminescence aperture, 0.1 seconds per well. cAMP activity was calculated as percent of the GLP1 (7-36) EC100 control wells: [(sample signal−mean EC0 signal)/(mean EC100 of GLP1 (7-36) signal−mean EC0 signal)}*100. Curve fitting for EC50 determinations was performed in the Helios module of the software package DAVID. The 4-parameter logistic model, Hill slope was used: y=Ainf+(A0−Ainf)/(1+(x/AC50)^Hill Slope) where y is the functional response; x is the compound concentration; A0 is the minimum value (at 0 dose); Ainf is the maximum value (at infinite dose); AC50 corresponds to the point of inflection (i.e. the point on the sigmoid shaped curve halfway between A0 and Ainf). The EC50 value was represented by the AC50 value calculated from Helios in μM. Emax is the maximal activity detected within the concentration range, derived from the fitted curve. […]
# [2] = molecular target: human GLP1R (Homo sapiens, UniProt P43220); test: Human GLP1R DERET internalization assay; type: cell-based; conditions: HEK293-SNAP-hGLP1R-GloSensor cells; for EC50: mean n=2; for Emax: relative to GLP1(7-36)
# human GLP1R, sequence (P43220 24-463): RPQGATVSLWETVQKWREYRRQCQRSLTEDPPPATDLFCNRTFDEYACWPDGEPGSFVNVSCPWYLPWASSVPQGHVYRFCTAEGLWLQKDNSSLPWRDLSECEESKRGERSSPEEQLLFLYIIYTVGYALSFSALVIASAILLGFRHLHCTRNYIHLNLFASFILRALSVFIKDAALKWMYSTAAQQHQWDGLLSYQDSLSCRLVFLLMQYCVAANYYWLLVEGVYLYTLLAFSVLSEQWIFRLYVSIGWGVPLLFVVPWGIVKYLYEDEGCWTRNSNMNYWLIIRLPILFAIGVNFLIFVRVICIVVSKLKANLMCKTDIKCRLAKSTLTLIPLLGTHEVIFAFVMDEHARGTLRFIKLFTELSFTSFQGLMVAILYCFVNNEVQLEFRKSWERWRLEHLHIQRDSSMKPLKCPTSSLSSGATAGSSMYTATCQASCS
# Experimental: as §1
# The extent to which agonists internalize the human GLP1R was determined based on an optimized version of a RealTime FRET-based ‘DERET’ (Dissociation Enhanced Resonance Energy Transfer) assay. The technology relies on labeling of the SNAP-tagged GPCR with a SNAP-Lumi-Terbium (donor fluorophore, Cisbio, cat #SSNPTBD). The compounds are incubated with the cells over-expressing the GPCR of interest in the presence of an excess of fluorescein (acceptor fluorophore). When the GPCR is on the cell surface, the donor signal is quenched by the acceptor and the donor/acceptor ratio is low. As the GPCR internalizes, the donor signal is no longer quenched, and the acceptor is no longer excited so the donor/acceptor ratio increases.
# HEK293-SNAP-hGLP1R-GloSensor cells (stably overexpressing SNAP-tagged hGLP1R) were seeded overnight in white 384-well poly-D-Lysine coated plates (Greiner Bio One, cat #781945) in regular DMEM growth medium (Gibco, cat #11965-092, 10% heat-inactivated FBS, 10 mM HEPES, 1× penicillin/streptomycin, 0.5 mg/mL geneticin (Gibco, cat #10131-035) and 0.25 mg/mL hygromycin B (Invitrogen, cat #10687010). On the assay day, cell medium was removed and 100 nM SNAP-Lumi-Tb reagent was added in Opti-MEM solution. The cells were incubated at 37° C. for 1 h. Cells were washed using a plate washer in assay buffer [1×HBSS (10× Gibco, cat #14065-056), 20 mM Hepes (Gibco, cat #15630-080), 1 mM CaCl2 (Fluka, cat #21114-1L), 1 mM MgCl2 (Ambion, cat #AM9530G) pH7.4], and 20 μL buffer with 0.1% BSA was added to each well. After leaving cells to equilibrate for ˜15 min at 37° C., 10 μL of Fluorescein (sodium salt, Sigma, cat #F6377, diluted in buffer) was added at 25 μM final concentration. To generate triplicate dose response curves, compounds were serially diluted 3-fold in assay buffer, then added to the cell assay plate to a final volume of 40 μL and final top concentrations starting at 30 μM. In the same plate and assay buffer as the tested compounds, a GLP1 (7-36) peptide (Bachem, cat #H-6795) control curve was included at a final top concentration of 1 μM in order to establish EC100. EC0 wells with buffer only were also included. The plate FRET fluorescence was measured immediately using a Perkin Elmer Envision with LANCE/DELFIA D400 single mirror, excitation filter X320, and emission filters M615_203 (donor emission) and M515 (acceptor emission), and then measured every 30 min. […] Plates were kept at 37° C. between reads. Data was expressed as the ratio of donor/acceptor emissions using Microsoft Excel and plotted in GraphPad Prism. In order to determine EC50 and Emax for internalization, data was calculated and expressed as percent of the GLP1 (7-36) EC100 control wells: [(sample signal−mean EC0 signal)/(mean EC100 of GLP1 (7-36) signal−mean EC0 signal)]*100 using Microsoft Excel. Curve fitting for EC50 determinations was performed using GraphPad Prism. The 4-parameter logistic model, Hill slope was used:
# Y=Bottom+(Top−Bottom)/(1+10^((Log EC50−X)*Hill Slope)), […]
# [3] = HEK293-SNAP-hGLP1R-GloSensor cells, cAMP, normalized to GLP1(7-36) maximum response
# [4] = HEK293-SNAP-hGLP1R-GloSensor cells
# human GLP1R (hGLP1R), sequence (P43220 24-463): as above
SMILES,"Emax [1, 3] [%]","EC50 [1, 4] [nM]",EC50 [2] [nM],Emax [2] [%],Emax [1] [%]
"Cc1nc(CN2CCC(c3cccc4c3O[C@@](C)(c3ccc(Cl)cc3F)O4)CC2)n(C[C@@H]2CCO2)c1CCC(=O)O [Compound C-14, 3-(2-((4-((S)-2-(4-chloro-2-fluorophenyl)-2-methylbenzo[d][1,3]dioxol-4-yl)piperidin-1-yl)methyl)-4-methyl-1-(((S)-oxetan-2-yl)methyl)-1H-imidazol-5-yl)propanoic acid]",107,0.254,3370,28,–
"Cc1nc(CN2CCC(c3cccc4c3O[C@@](C)(c3ccc(Cl)cc3F)O4)CC2)n(C[C@@H]2CCO2)c1-c1nc(=O)o[nH]1 [Compound C-20, 3-(2-((4-((S)-2-(4-chloro-2-fluorophenyl)-2-methylbenzo[d][1,3]dioxol-4-yl)piperidin-1-yl)methyl)-4-methyl-1-(((S)-oxetan-2-yl)methyl)-1H-imidazol-5-yl)-1,2,4-oxadiazol-5(2H)-one]",–,0.202,> 30000,6,104
"Cc1c(-c2nc(=O)o[nH]2)nc(CN2CCC(c3cccc4c3O[C@@](C)(c3ccc(Cl)cc3F)O4)CC2)n1C[C@@H]1CCO1 [Compound C-21, 3-(2-((4-((S)-2-(4-chloro-2-fluorophenyl)-2-methylbenzo[d][1,3]dioxol-4-yl)piperidin-1-yl)methyl)-5-methyl-1-(((S)-oxetan-2-yl)methyl)-1H-imidazol-4-yl)-1,2,4-oxadiazol-5(2H)-one]",104,0.297,1790,13,–
"Cc1c(-c2cncc(C(=O)O)c2)nc(CN2CCC(c3cccc4c3O[C@@](C)(c3ccc(Cl)cc3F)O4)CC2)n1C[C@@H]1CCO1 [Compound C-12, 5-(2-((4-((S)-2-(4-chloro-2-fluorophenyl)-2-methylbenzo[d][1,3]dioxol-4-yl)piperidin-1-yl)methyl)-5-methyl-1-(((S)-oxetan-2-yl)methyl)-1H-imidazol-4-yl)nicotinic acid]",113,0.6,> 30000,10,–
"C[C@]1(c2ccc(Cl)cc2F)Oc2cccc(C3CCN(Cc4nc(F)c(/C=C/C(=O)O)n4C[C@@H]4CCO4)CC3)c2O1 [Compound C-18, (E)-3-(2-((4-((S)-2-(4-chloro-2-fluorophenyl)-2-methylbenzo[d][1,3]dioxol-4-yl)piperidin-1-yl)methyl)-4-fluoro-1-(((S)-oxetan-2-yl)methyl)-1H-imidazol-5-yl)acrylic acid]",116,0.0253,197,90,–
